Measurements published in patent US20230226021A1, “ORAL FORMULATIONS OF PYRROLIDINE DERIVATIVES” (ObsEva S.A., priority 2013, published 2023).

Assay: Qualitative solubility/crystallisation tests on 15 mg scale
Type: physicochemical
Excerpt: The E/Z ratio pre and post dry-flash remain in the range of 30/70 to 40/60. Furthermore, such an approach should be considered on the basis of the scale at which the operation has to be carried out. On a 20 L scale, this operation would not be a time saving approach.

CO/N=C1/C[C@@H](CO)N(C(=O)c2ccc(-c3ccccc3C)cc2)C1 [(3Z,5S), (3Z,5S)-5-(hydroxymethyl)-1-[(2′-methyl-1,1′-biphenyl-4-yl)carbonyl]pyrrolidin-3-one-O-methyloxime]
Qualitative solubility, Dissolves in (DIPE, hot): 40 vol hot
Qualitative solubility, Dissolves in (IPA, hot): 4 vol hot
Qualitative solubility, Dissolves in (MIBK, hot): 4 vol hot
Qualitative solubility, Dissolves in (THF, cold): 4 vol cold
Qualitative solubility, Dissolves in / Comment (heptanes): insoluble in 20 vol
Qualitative solubility, Dissolves in (tBuOH, hot): 6 vol hot
Qualitative solubility, Dissolves in (toluene, cold): 2 vol cold
